Values quoted from earlier work in patent publication US20070297988A1, “Optical probes for in vivo imaging” (priority 2006, published 2007).

Columns and labels:
[1] = administered intravenously
[2] = degradation accelerated by light and heat

- plasmatic half-life [1]: 2 to 4 min
- protein binding [1]: extensive protein binding
- stability in aqueous solution [2]: degraded in aqueous solution
Compound: CC1(C)C(/C=C/C=C/C=C/C=C2\N(CCCCS(=O)(=O)O)c3ccc4ccccc4c3C2(C)C)=[N+](CCCCS(=O)(=O)[O-])c2ccc3ccccc3c21 [ICG, indocyanine green]
